# Source: paper PMC11859264, “Discovery of a Novel Multitarget Analgesic Through an In Vivo-Guided Approach” (Pharmaceuticals, 2025)
# Tested on: formalin model
# Assay: Formalin test in mice (primary in vivo screening and ED50)
# Parameters: species or system ICR male mice
# Details: mice, second phase; for % Inhibition in the second phase of the formalin model relative to vehicle control: 5 mg/kg intraperitoneal
# Protocol: For primary screening, the synthesized compounds were administered to mice via intraperitoneal injection at a dose of 5 mg/kg using the formalin model. The percentage inhibition in the second phase, relative to the vehicle control (DMSO/cremophor EL/distilled water = 10:10:80), was calculated.
# Each compound was assessed using four doses (0.1, 1, 5, and 10 mg/kg) by intraperitoneal injection.
# ICR male mice weighing 23–25 g was purchased from Samtako Korea (Osan, Republic of Korea). ICR mice were housed four per cage in a room with 12 h light–dark cycles. The temperature and relative humidity of the room were maintained at 22 ± 2 °C and 50 ± 5%, respectively. Food and water were available ad libitum. The procedures for animal testing were approved by Medifron Animal Care and Use Committees (Approval number; Medifron 2019-9). Efforts were made to minimize animal suffering and to reduce the number of animals used.
# Mice were randomly assigned to five groups (four per group) and single-dose drugs were administered by intraperitoneal injection. The formalin-induced licking paw test was modified from the method described by Dubuisson and Dennis. Each mouse was acclimated to an acrylic observation chamber for at least 30 min before the injection of formalin. Twenty microliters of 2% formalin were injected subcutaneously into the right side of the hind paw. Each mouse was then placed in an individual clear plastic observational chamber (15 × 15 × 15 cm, volume = […] or 3.375 L), and the pain response was recorded for a period of 30 min. The summation of time (in seconds) spent in licking and biting responses of the injected paw during each 5 min block was measured as an indicator of the pain response. The first period (early phase) was recorded 0–5 min after the injection of formalin, and the second period (late phase) was recorded 20–30 min after the injection. The test compound was administered intraperitoneally 30 min before the formalin injection at […]: 0.1, 1, 5, and 10 mg/kg. The vehicle was DMSO/Cremophor EL/distilled water (10/10/80). The data were expressed as the mean ± standard error of the mean (SEM). Statistical analysis was assessed by one-way analysis of variance (ANOVA) with Bonferroni’s post hoc test. Statistical significance was set at p-value < 0.05, with values of p <0.001 considered highly significant.
Compound,% Inhibition in the second phase of the formalin model relative to vehicle control,"ED50 (Mus musculus, ip, intraperitoneal, doses 0.1, 1, 5 and 10 mg/kg, read-out: ED50 in the second phase of the formalin model)"
"N#Cc1ccc2[nH]cc(C(=O)NCCCN3CCN(c4cccc(C(F)(F)F)c4)CC3)c2c1 [Compound 38, 5-Cyano-N-(3-(4-(3-(trifluoromethyl)phenyl)piperazin-1-yl)propyl)-1H-indole-3-carboxamide]",37.1%,
"N#Cc1ccc2[nH]cc(C(=O)NCCN3CCN(c4cccc(F)c4)CC3)c2c1 [Compound 20, 5-Cyano-N-(2-(4-(3-fluorophenyl)piperazin-1-yl)ethyl)-1H-indole-3-carboxamide]",3.1%,
"N#Cc1ccc2[nH]cc(C(=O)NCCN3CCN(c4cccc(C(F)(F)F)n4)CC3)c2c1 [Compound 26, 5-Cyano-N-(2-(4-(6-(trifluoromethyl)pyridin-2-yl)piperazin-1-yl)ethyl)-1H-indole-3-carboxamide]",48.6%,
"N#Cc1ccc2[nH]cc(C(=O)NCCN3CCN(c4nsc5ccccc45)CC3)c2c1 [Compound 32, N-(2-(4-(Benzo[d]isothiazol-3-yl)piperazin-1-yl)ethyl)-5-cyano-1H-indole-3-carboxamide]",14.3%,
"Cc1ccc(Sc2ccccc2N2CCN(CCNC(=O)c3c[nH]c4ccc(C#N)cc34)CC2)c(C)c1 [Compound 31, 5-Cyano-N-(2-(4-(2-((2,4-dimethylphenyl)thio)phenyl)piperazin-1-yl)ethyl)-1H-indole-3-carboxamide]",,2.66 mg/kg
"N#Cc1ccc2[nH]cc(C(=O)NCCN3CCN(c4ccc(Cl)cc4)CC3)c2c1 [Compound 24, N-(2-(4-(4-Chlorophenyl)piperazin-1-yl)ethyl)-5-cyano-1H-indole-3-carboxamide]",1.6%,
"N#Cc1ccc2[nH]cc(C(=O)NCCCN3CCN(c4ccc(C(F)(F)F)cc4)CC3)c2c1 [Compound 41, 5-Cyano-N-(3-(4-(4-(trifluoromethyl)phenyl)piperazin-1-yl)propyl)-1H-indole-3-carboxamide]",16.5%,
"N#Cc1ccc2[nH]cc(C(=O)NCCN3CCN(C(=O)c4cccc(C(F)(F)F)c4)CC3)c2c1 [Compound 34, 5-Cyano-N-(2-(4-(3-(trifluoromethyl)benzoyl)piperazin-1-yl)ethyl)-1H-indole-3-carboxamide]",2.1%,
"N#Cc1ccc2[nH]cc(C(=O)NCCCN3CCN(c4ccc(Cl)cc4)CC3)c2c1 [Compound 40, N-(3-(4-(4-Chlorophenyl)piperazin-1-yl)propyl)-5-cyano-1H-indole-3-carboxamide]",4.7%,
"NCC1(CC(=O)O)CCCCC1 [gabapentin, reference compound]",70.7%,
"N#Cc1ccc2[nH]cc(C(=O)NCCCN3CCN(c4cccc(C(F)(F)F)n4)CC3)c2c1 [Compound 42, 5-Cyano-N-(3-(4-(6-(trifluoromethyl)pyridin-2-yl)piperazin-1-yl)propyl)-1H-indole-3-carboxamide]",45.7%,
"N#Cc1ccc2[nH]cc(C(=O)NCCCN3CCN(C(=O)c4cccc(C(F)(F)F)c4)CC3)c2c1 [Compound 50, 5-Cyano-N-(3-(4-(3-(trifluoromethyl)benzoyl)piperazin-1-yl)propyl)-1H-indole-3-carboxamide]",2.9%,
"N#Cc1ccc2[nH]cc(C(=O)NCCN3CCN(C(=O)C4COc5ccccc5O4)CC3)c2c1 (stereo not shown) [Compound 35, 5-Cyano-N-(2-(4-(2,3-dihydrobenzo[b][1,4]dioxine-2-carbonyl)piperazin-1-yl)ethyl)-1H-indole-3-carboxamide]",0.4%,
